What was measured:
[1] = test system: bile ducts formed from the rCLiPs cocultured with human hepatocytes; experiment: CLF transfer to bile ducts in coculture of rCLiP bile ducts and human hepatocytes; type: in vitro ADME; details: human hepatocytes cocultured 3 days; 30 min incubation in HBSS containing CLF; observed immediately, 4 and 24 hours after washing; excitation 470 nm; FIG. 6A
Text: (§1) It can be confirmed by various methods using labeled compounds that the glandular cavities and the ducts are functionally connected in the cultured tissue produced by the above-mentioned method. For example, a compound obtaining by labeling a compound the behavior of which in the glandular cavities and the ducts is known and which are objects to be confirmed can be used. The functional connection between the glandular cavities and the ducts can be specifically confirmed by confirming whether the labeled secretion or the analogue thereof is incorporated into the glandular cells, and the labeled secretion or the analogue thereof secreted from the glandular cells can be detected from the ducts. […] When CLF is incorporated into the hepatocytes cocultured with the bile ducts, and the fluorescence of CLF is detected from the bile ducts, it can be confirmed that CLF is secreted from the hepatocytes to the biliary canaliculi, and the secreted CLF moves to the bile ducts, namely that the biliary canaliculi and the bile ducts are functionally connected. […]
One day after the inoculation of the human hepatocytes, the medium was exchanged for BIM-2 medium. […] After the incubation, the cells were washed with MSS not containing CLF, and the appearances of the cells immediately, 4 hours, and 24 hours after washing were observed through a phase-contrast microscope and a fluorescence microscope (FIG. 6A). […]

[2] = test system: bile ducts formed from rCLiPs only; experiment: CLF incubation of rCLiP bile ducts only, without human hepatocytes (negative control, Example 2); type: in vitro ADME, rat; details: no human hepatocytes, 30 min incubation in HBSS containing CLF, observed immediately, 4 and 24 hours after washing, FIG. 6B
Description: After the incubation, the cells were washed with MSS not containing CLF, and the appearances of the cells immediately, 4 hours, and 24 hours after the washing were observed through a phase-contrast microscope and a fluorescence microscope (FIG. 6B).

[3] = test system: bile ducts formed from rCLiPs only; experiment: CLF added to rCLiP bile ducts only, without primary hepatocytes (negative control, Example 1); type: in vitro ADME, rat; details: no hepatocytes, 2 hours after CLF addition, FIG. 3B
Description: The appearance 2 hours after the addition of the CLF solution was observed through the phase-contrast microscope and the fluorescence microscope (FIG. 3B).

[4] = test system: bile ducts formed from the rCLiPs cocultured with rat primary hepatocytes; experiment: CLF transfer to bile ducts in coculture of rCLiP bile ducts and rat primary hepatocytes; type: in vitro ADME; details: rat primary hepatocytes cocultured 3 days; observed 2, 24 and 72 hours after CLF addition; excitation 480 nm; FIG. 3A
Text: as §1
One day after the inoculation of the primary hepatocytes, the medium was exchanged for the BIM-2 medium. […] The appearances of the cells 2 hours, 24 hours, and 72 hours after the addition of the CLF solution were observed through a phase-contrast microscope and a fluorescence microscope (FIG. 3A). […]

CC(CCC(=O)NC(CCCCNC(=S)Nc1ccc(-c2c3ccc(=O)cc-3oc3cc(O)ccc23)c(C(=O)O)c1)C(=O)O)C1CCC2C3C(O)CC4CC(O)CCC4(C)C3CC(O)C12C (stereo not shown) [CLF, cholyl-lysyl-fluorescein]
CLF fluorescence in bile ducts (secretion to biliary canaliculi and movement to bile ducts) [1]: fluorescence was detected from the bile ducts | CLF fluorescence in bile ducts [2]: fluorescence was not, meanwhile, detected | CLF fluorescence in bile ducts [3]: fluorescence was not, meanwhile, detected | CLF fluorescence in bile ducts (secretion to biliary canaliculi and movement to bile ducts) [4]: fluorescence was detected from the bile ducts

Reference: patent US20220135942A1, “CULTURED TISSUE AND METHOD FOR PRODUCING SAME” (NAGASAKI UNIVERSITY, priority 2019, published 2022)
